In patent publication US9932617B2, “Ketose 3-epimerase produced by arthrobacter globiformis” (priority 2013, dated 2018):
Like-named read-outs stand apart in the source and are kept apart here. Marks after values point to notes of the source that are not given here.

How the values were obtained:
Type in all cases: biochemical, Arthrobacter globiformis M30
ketose 3-epimerase [1] = target: T1, ketose 3-epimerase (Arthrobacter globiformis, UniProt A0A1L7NQ96); assay: D-PE substrate specificity, enzyme before purification (crude enzyme); conditions: 0.2 M substrate, 55° C., 30 min, Tris buffer pH 7.0, D-psicose epimerization activity taken as 100
T1 sequence (A0A1L7NQ96 whole entry): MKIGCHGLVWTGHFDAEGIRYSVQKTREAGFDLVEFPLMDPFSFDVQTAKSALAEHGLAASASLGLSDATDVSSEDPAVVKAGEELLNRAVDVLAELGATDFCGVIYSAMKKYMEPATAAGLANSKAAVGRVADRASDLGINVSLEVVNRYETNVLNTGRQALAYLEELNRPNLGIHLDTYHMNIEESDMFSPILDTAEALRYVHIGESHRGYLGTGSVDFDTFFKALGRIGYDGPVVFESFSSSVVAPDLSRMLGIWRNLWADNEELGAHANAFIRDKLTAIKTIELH
Description: A reaction was allowed under the reaction conditions below. After quenching the reaction by boiling, the reaction liquid was desalted with an ion-exchange resin, and filtered to prepare an HPLC sample. The sample was analyzed by chromatography using CK08EC (Mitsubishi Chemical Corporation) in an HPLC system (Tosoh). Each product sugar was determined by calculations from the peak area values of the chromatogram.
Eight hexose (ketoses) were used to examine the substrate specificity of the present enzyme before purification. An enzyme reaction composition (Table 4) containing each substrate (0.2 M, 350 μl) and an enzyme liquid (350 μl; Tris buffer pH 7.0) was allowed to react at 55° C. for 30 min, and the ketose epimerized and produced from each sugar was analyzed by HPLC. The results are presented as relative activity for each ketose relative to the D-psicose epimerization activity which is taken as 100, as follows. Table 5 presents relative activity values for D-fructose, D-psicose, D-sorbose, D-tagatose, L-fructose, L-psicose, L-sorbose, […] L-tagatose substrates. The activity was the highest for D-psicose, and the second highest for D-fructose. The substrate specificity can be said as characteristic of the D-psicose 3 epimerase (DPE), not other free ketose 3 epimerases, and was clearly different from the specificity of the D-tagatose3-epimerase (DTE) of Pseudomonas cichorii.

ketose 3-epimerase [2] = target: T1, ketose 3-epimerase; assay: Substrate specificity of purified enzyme for all ketohexoses; conditions: 400 mM substrate, 20 mM MgCl2, 70° C. (120 min for D-sorbose and L-fructose, 20 min others), D-psicose taken as 100
Description: The reactivity of the present enzyme was examined with respect to the all ketohexoses. The enzyme activity was tabulated as the relative activity with respect to the activity for D-psicose which is taken as 100. The present enzyme had activity for the all ketohexoses, and the activity was the highest for D-psicose. […] The initial velocity was determined by allowing a reaction at 70° C. for 120 min for D-sorbose and L-fructose, and 70° C. for 20 min for the other substrates.

ketose 3-epimerase [3] = target: T1, ketose 3-epimerase; assay: Effects of metal ions on EDTA treated purified enzyme; conditions: for Relative activity (%): 1 mM metal ion, D-psicose substrate, EDTA treated enzyme, activity without metal ions taken as 100; for metal ion activation: purified enzyme
Description: The enzyme was examined for metal ion requirement. The purified enzyme was dialyzed for 2 hours against 10 mM Tris-HCl containing 1 mM EDTA (pH 7.5). The enzyme was further dialyzed against an EDTA-free 10 mM Tris-HCl buffer (pH 7.5) for a whole day and night to obtain an EDTA treated enzyme. This enzyme was used to measure the effect of metal ions on enzyme activity, using 1 mM of various metal ions, and D-psicose as the substrate. The results are presented in Table 13, in which the activity with addition of each type of metal ions is shown as the relative value with respect to the activity of the enzyme without metal ions which is taken as 100.

ketose 3-epimerase [4] = target: T1, ketose 3-epimerase
ketose 3-epimerase [5] = target: T1, ketose 3-epimerase; assay: Km and Vmax of the present enzyme; conditions: 30° C., in the presence of Mg^2+ ions
Description: The Km and Vmax of the present enzyme for D-psicose and D-fructose were measured. The measurement was made by measuring enzyme activity at 30° C. in the presence of Mg^2+ ions.

[6] = crude enzyme dialyzed against EDTA, D-fructose substrate, pH 7.0, 55° C., 30 min

Row | Molecule | Relative activity (%) (ketose 3-epimerase [1]) | Relative activity (%) (ketose 3-epimerase [2]) | Relative activity (%) (ketose 3-epimerase [3]) | further results
1 | O=C(CO)[C@H](O)[C@H](O)[C@@H](O)CO [L-tagatose] | 12.5% | 44.0 | – | –
2 | [Mn+2] [Mn^2+, divalent manganese ions] | – | – | 137 | metal ion activation (ketose 3-epimerase [3]): activatable; metal ion activation (effect of metal salt on enzyme activity) (ketose 3-epimerase [4]; [6]): activatable
3 | manganese chloride [MnCl2] | – | – | – | metal ion activation (effect of metal salt on enzyme activity) (ketose 3-epimerase [4]; [6]): increased
4 | [Cl-].[Cl-].[Co+2] [CoCl2] | – | – | – | metal ion activation (effect of metal salt on enzyme activity) (ketose 3-epimerase [4]; pH 7): increased
5 | O=C(CO)[C@H](O)[C@H](O)[C@H](O)CO [D-psicose] | 100* % | 100 | – | Km (ketose 3-epimerase [5]): 30.1 mM; Vmax (ketose 3-epimerase [5]): 168 U/mg
6 | O=C(CO)[C@@H](O)[C@@H](O)[C@H](O)CO [D-tagatose] | 5.42% | 18.3 | – | –
7 | [Zn+2] [Zn^2+] | – | – | 0 | –
8 | O=C(CO)[C@@H](O)[C@H](O)[C@H](O)CO [D-fructose] | 58.14% | 43.8 | – | Km (ketose 3-epimerase [5]): 31.5 mM; Vmax (ketose 3-epimerase [5]): 68.5 U/mg
9 | [Fe+2] [Fe^2+] | – | – | 32 | –
10 | O=C(CO)[C@H](O)[C@@H](O)[C@H](O)CO [D-sorbose] | 1.25% | 1.13 | – | –
11 | [Mg+2] [Mg^2+, magnesium ions] | – | – | 150 | metal ion activation (ketose 3-epimerase [3]): activatable
12 | [Cu+2] [Cu^2+] | – | – | 0 | –
13 | [Ni+2] [Ni^2+] | – | – | 87 | –
14 | O=C(CO)[C@H](O)[C@@H](O)[C@@H](O)CO [L-fructose] | 12% | 0.97 | – | –
15 | O=C(CO)[C@@H](O)[C@@H](O)[C@@H](O)CO [L-psicose] | 12% | 21.2 | – | –
16 | [Na+] [Na^+] | – | – | 120 | –
17 | O=C(CO)[C@@H](O)[C@H](O)[C@@H](O)CO [L-sorbose] | 8% | 16.6 | – | –
18 | [Co+2] [Co^2+, divalent cobalt ions] | – | – | 130 | metal ion activation (ketose 3-epimerase [3]): activatable; metal ion activation (effect of metal salt on enzyme activity) (ketose 3-epimerase [4]; [6]): activatable
19 | [Ca+2] [Ca^2+, calcium] | – | – | 110 | metal ion activation (ketose 3-epimerase [3]): activatable
